Key:
Phelipanche ramosa pv T = test: Germinative activity on parasitic plants; format: in vivo; conditions: counted after 4 days
Method: (§1) In this example, the germinative activity of the compounds in accordance with the invention (IIa) and (IIIb) and of the comparative compound GR24 was evaluated on the parasitic plants: Orobanche cumana, Orobanche minor, Striga hermonthica, Phelipanche ramosa (pv T and pv C).
(§2) The test protocol used was the following.
(§3) Two populations of Phelipanche ramosa were used in this study, pathovar (pv) C and T, described in the publication by Benharrat et al. (2005). Seeds of Phelipanche ramosa pathovar C were collected at Saint Martin de Fraigneau, France, on broomrapes parasitizing winter oilseed rape (Brassica napus L.) in 2005 and seeds of Phelipanche ramosa pathovar T were collected in Sarthe, France, on broomrapes developing on hemp (Cannabis sativa L.) in 2007.
(§4) The seeds are stored dry in the dark at 25° C.
(§5) The compounds to be studied were resuspended in acetone at 10 mmol·l^−1, then diluted with water to 1 mmol·l^−1 (water/acetone; v/v; 99/1). Dilutions of 1×10^−3 mol·l^−1 to 1×10^−15 mol·l^−1 were then prepared in a water/acetone mixture (v/v; 99/1). Seeds of parasitic plants were surface-sterilized according to the protocol described in the publication by Vieira Dos Santos et al. (2003), then resuspended in sterile water (10 g·l^−1) and distributed on a 96-well plate (in a proportion of 50 μl, i.e. approximately 100 seeds per well). After preconditioning (7 days, 21° C., in the dark, plate hermetically sealed, except for the seeds of S. hermonthica, which were preconditioned at 30° C.), the compounds to be studied were added and the volumes adjusted to 100 μl with water (water/acetone; v/v; 999/1).
(§6) In a plate, a range of concentrations from 10^−13 mol·l^−1 to 10^−6 mol·l^−1 was applied for GR24 and (IIa) and from 10^−12 to 10^−5 mol·l^−1 for (IIIb). Controls were carried out with a water/acetone mixture (v/v; 999/1) and without seeds. The plates were incubated so as to allow germination (21° C., in the dark or 30° C. for Striga hermonthica.). After 4 days, the seeds which had germinated were counted under a stereomicroscope (SZX10, Olympus). The seeds were considered to have germinated when the radicle was sticking out of the seed tegument. Each germination test was repeated at least 3 times. For each compound tested, dose-response curves (g=f(c), where g is the germination percentage and c the concentration (mol·l^−1)), and the EC50 (median effective concentration) were modeled on the basis of a 4-parameter logistic curve calculated with SigmaPlot® 10.0.
(§7) The percentages of maximum germination induced by the compounds tested for each parasitic plant were determined.

Phelipanche ramosa pv C = test: Germinative activity on parasitic plants; format: in vivo; conditions: counted after 4 days
Method: as §1, §2, §3, §4, §5, §6, §7

Orobanche minor = test: Germinative activity on parasitic plants; format: in vivo; conditions: counted after 4 days
Method: as §1, §2
(§8) Seeds of Orobanche cumana Wallr. were collected from broomrapes parasitizing sunflower (Helianthus annuus L.), at Longeville-sur-mer, France, in 2009; seeds of clover broomrape (Orobanche minor Sm.) from a parasite of red clover (Trifolium pratense L.) were obtained from Professor K. Yoneyama (Utsunomiya University, Japan).
as §4, §5, §6, §7

Orobanche cumana = test: Germinative activity on parasitic plants; format: in vivo; conditions: counted after 4 days
Method: as §1, §2, §8, §4, §5, §6, §7

Striga hermonthica = test: Germinative activity on parasitic plants; format: in vivo; conditions: counted after 4 days, 30° C.
Method: as §1, §2
Seeds of Striga hermonthica (Del.) Benth were collected at Gadarif, Eastern Sudan, in 1999.
as §4, §5
as §6, with “The seeds were considered to have germinated when the radicle was sticking out of the seed tegument. Each germination test was repeated at least 3 times.” left out
as §7

[1] = Stability in aqueous medium (UPLC, % nondegraded compound); format: physicochemical; conditions: second experiment, longer incubation times; 50 μg/ml in methanol/water: 1/4, pH 6.7, 21° C.; FIG. 2
Method: The stability in aqueous medium of the compound (IIa) according to the invention and that of GR24 as comparative compound was evaluated in the following way.
Each compound was diluted in acetone (1 ml), then 50 μl of each solution were diluted with methanol (175 μl) and water (750 μl) so as to obtain a compound concentration of 50 μg/ml.
The aqueous solution thus obtained was incubated at 21° C. in HPLC vials.
Indanol (25 μl of a solution at 1 mg/ml in acetone) was added to each solution in order to serve as an internal standard.
The degradation of each compound over time was monitored by analysis of samples taken from the solution at various time intervals, by Ultra Performance Liquid Chromatograpy (UPLC) by means of an Acquity UPLC HSS C18 column (1.8 μm, 2.1×50 mm), eluted first of all with a solution of acetonitrile at 5% in water containing 0.1% of formic acid, for 0.5 min, then with a gradient of 5% to 100% of acetonitrile in water containing 0.1% of formic acid, for 6.5 min, and with 100% of acetonitrile containing 0.1% of formic acid for 3 min. The column was maintained at a temperature of 40° C., with a flow of 0.6 ml/min.
The compounds eluted from the column were detected with a photodiode array detector.
The relative amount of nondegraded compound in the solution was determined by comparison with the internal standard.
In a second experiment, the stability in aqueous medium of the compounds (IIa) and (IIIb) according to the invention, and that of GR24 as comparative compound, was evaluated according to the protocol described above.

pea rms4 mutant = format: in vivo, Pisum sativum L.
Method: The protocol used is in accordance with that described in example 4 above. Compound concentrations of 100 nM and 3 μM were tested. A negative control consisting of the solvent alone (<<CTL 0>>) was also tested.
The number of dead buds following the treatment with 3 μM of compound was also determined after 8 days of treatment (on groups of 48 plants).

COC(=O)/C=C/C(C)=C/OC1OC(=O)C(C)=C1C (centres unmarked) [Compound (IIIb)]
Percentage of maximum germination induced (Phelipanche ramosa pv T): 88 ± 6% | Percentage of maximum germination induced (Phelipanche ramosa pv C): no (no significant germination compared to the negative control (<2%)) | Percentage of maximum germination induced (Orobanche minor): 60 ± 6% | Percentage of maximum germination induced (Orobanche cumana): no (no significant germination compared to the negative control (<2%)) | Percentage of maximum germination induced (Striga hermonthica): no (no significant germination compared to the negative control (<2%)) | chemical stability in aqueous solution (% of nondegraded compound as a function of incubation time) [1]: even better than that of the compound (IIa) | length of bud/branch at node 3 (toxicity) (pea rms4 mutant; 100 nM and 3 μM, 8 days after treatment at node 3, FIG. 15): absence of effects of the compounds in accordance with the invention (IIa) and (IIIb) compared with a negative control, and between the two treatment doses | number of dead buds after treatment (pea rms4 mutant; 3 μM, 8 days of treatment, groups of 48 plants, FIG. 16): did not cause the death of any bud

— US9532569B2 (INSTITUT NATIONAL DE LA RECHERCHE AGRONOMIQUE, priority 2012, dated 2017)
